“Also recorded” adds a separate entry of the source.
What was measured:
[1] = tested on: wild-type nematodes; assay: Lifespan of C. elegans; assay type: in vivo; conditions: FIG. 8
Method: It was previously shown that several interventions that improve age-associated phenotypes also modulate lifespan (Ayyadevara et al. (2017) Antioxid Redox Signal. 27(17): 1383-1396; Ayyadevara et al. (2005) Aging Cell. 4(5): 257-271). The lifespan was assessed in C. elegans, either mock-treated or exposed to TDZD analogues. PNR-962 and BSK-179 extended the lifespan of wild-type nematodes to an identical degree, increasing the mean by roughly 25-30% (P<0.001; FIG. 8).
To obtain synchronized eggs for lifespan studies, worms were maintained for 2 generations, free of contamination and starvation. Healthy, well-fed adult worms from the 2nd generation were then lysed, and eggs placed on plates with appropriate doses of TDZD analogue PNR962, or DMSO vehicle alone (for a final concentration of 0.02% v/v DMSO). At the L4 larval stage, worms were transferred daily to fresh plates for 7 days, and thereafter on alternate days until all the worms are dead. C. elegans that moved spontaneously or responded to gentle prodding were scored as alive. For the mortality computation, worms that were lost for reasons other than natural death were censored. The methods described were adopted from previously described experimental procedures (Ayyadevara, et al. (2016) PIP3-binding proteins promote age-dependent protein aggregation and limit survival in C. elegans. Oncotarget, 7(31): 48870-48886; Bharill, et al. (2013) Extreme Depletion of PIP3 Accompanies the Increased Life Span and Stress Tolerance of PI3K-null C. elegans Mutants. Frontiers in Genetics, 4).

[2] = tested on: C. elegans strain AM141; assay: Q40::YFP aggregates in C. elegans strain AM141; assay type: in vivo
Method: (§1) Several TDZD-conjugated drugs (putative GSK-3 inhibitors) were evaluated for their ability to reduce accumulation of protein aggregates, and for protection against aggregation-associated end-points in the following model systems: (i.) SH-SY5Y-APPSw, a neuroblastoma cell line expressing the Swedish mutation of Amyloid Precursor Protein (APPSw), and thus predisposed to form β-amyloid deposits; (ii.) C. elegans strain CL4176, a model of Alzheimer-like amyloidopathy that can be induced to express human Aβ1-42 in muscle, or may express it at a lower level without induction; (iii.) C. elegans strain AM141, a model of Huntington-like polyglutamine aggregation that constitutively expresses Q40::YFP (a tract of 40 glutamines fused in-frame to yellow fluorescent protein) in muscle cells and forms aggregates progressively with adult aging. The TDZD analog PNR-962 (a putative GSK-3 inhibitor) and other related compounds (not shown) were protective in all aggregation assays.
Fresh agar plates supporting bacterial lawns, which serve as food for C. elegans, were prepared at least 1 day ahead of use. C. elegans AM141 (forming Q40::YFP aggregates in muscle, progressively in early adulthood) were placed on these 100-mm plates. Day-4 adult worms were lysed with alkaline hypochlorite solution to obtain eggs from worms, a procedure that permits synchronization of worms in a cohort. Eggs were placed on plates spotted with different concentrations of TDZD analogues after allowing the compounds to be evenly distributed on the plates (˜1 hour after adding drugs to plates). Vehicle-only (DMSO) controls are included in each experiment, as a baseline for drug effects in experimental groups. Young-adult AM141 (day-3 adults) were transferred on alternate days onto fresh plates that contained the same doses of compounds, with fresh E. coli to prevent starvation of worms. Equal samples (n=25) were randomly picked from experimental groups and control group for microscopic imaging. Using an in-house plugin for ImageJ software (NIH), several images of AM141 were processed for aggregate count per worm. The fluorescence intensity of each aggregate (indicating the size/content of protein aggregates) was also measured. Each drug treatment was repeated multiple times to validate the results.

[3] = tested on: SH-SY5Y-APPSw cells; assay: Thioflavin-T staining of amyloid-like aggregates in SH-SY5Y-APPSw cells; assay type: cell-based, human
Method: as §1
First, the effects of TDZD analogues were tested on the human neuroblastoma cell line SH-SY5Y-APPSw, a model of Alzheimer-like amyloid aggregation expressing the “Sw” mutant form of Amyloid Precursor Protein, APP. These drugs all produced significant reductions in amyloid-like aggregates, by 30-50% as quantified by thioflavin-T staining intensity (data for PNR-962 are shown in FIG. 4). Modified TDZD-8 analogues PNR-962 and BSK-179 are more anti-aggregative than TDZD-8, lowering total amyloid-staining intensity by a further 14% (data not shown).
Following previously described experimental procedures (Liu, et al. (2005). S100B-induced microglial and neuronal IL-1 expression is mediated by cell type-specific transcription factors. Journal of Neurochemistry. 92(3): 546-553), SH-SY5Y-APPSw neuronal cells expressing an aggregation-prone double mutant of amyloid precursor protein (APPSw) were cultured in DMEM plus 10% (v/v) fetal bovine serum (FBS) at 37° C. Cells were suspended in trypsin/EDTA and rinsed in PBS prior to re-plating or harvesting. […] Human neuroblastoma cells were treated with PNR962, either simultaneous with sAPPα or beginning 1 h prior to sAPPα addition (pre-treatment) in order to ascertain the protective benefits of PNR962 on protein aggregation in human neuroblastoma cell lines. A similar experimental procedure was followed to examine the effect of treatment with these analogs on non-neuronal human cells, exposing human embryonic kidney cells (HEK) that express tau-like aggregates (found in AD-associated diseases) to 0.001, 0.01, and 1-μM doses of TDZD-8 and its analogues.
To observe the protective effects of the novel TDZD analogs on protein aggregation in SY5Y-APPSw cells, using DMEM medium containing 10% fetal calf serum in […], cells were cultured at 37′C for 26 hrs allowing cells to approximately double in number. After 48 h of cell incubation in the presence of specified concentrations of drug or vehicle, cells were fixed 15 min in formaldehyde (4% v/v), washed, and stained 20 min at ˜22° C. in a dark container with 0.1% w/v Thioflavin T mixed with DAPI (1 μg/ml; Life Technologies, Grand Island, N.Y., USA). […] The intensity of aggregate/thioflavin-T fluorescence per field was quantified via an Image J plug-in developed in-house, and normalized to the number of DAPI^+ nuclei counted per field, to obtain an average intensity of aggregates per cell for each treatment.

SMILES: O=c1sn(CCI)c(=O)n1Cc1ccccc1 [PNR-962]
- lifespan [1]: increased
- number of Q40::YFP aggregates ([2]; 5-μM, 3 days of exposure (FIG. 6)): reduces huntingtin-like aggregates; also recorded: reduced the number of aggregates significantly
- number of aggregation foci ([2]; C. elegans model of Huntington's Disease (FIG. 7)): decreases
- aggregate intensity (content of Q40-YFP) ([2]; not shown): reduced aggregate intensity
- protein aggregation ([3]; 5 μM (FIG. 4)): reduces protein aggregation
- further lowering of total amyloid-staining intensity relative to TDZD-8 ([3]; data not shown): 14%

Source: patent US20230125667A1, “NOVEL TDZD ANALOGS AS AGENTS THAT DELAY, PREVENT, OR REVERSE AGE-ASSOCIATED DISEASES AND AS ANTI-CANCER AND ANTILEUKEMIC AGENTS” (United States Government as represented by the Department …, priority 2020, published 2023)
